Source: US20120201824A1, “Compositions and Methods for Inhibiting an Oncogenic Protein to Enhance Immunogenicity” (priority 2008, published 2012)

What was measured:
[1] = test system: CD274 protein; assay: Flow cytometry for cell-surface CD274 protein in ALK+ TCL cells; format: cell-based, human; conditions: SUDHL-1 cells; rapamycin 300 nM, wortmannin 20 nM, U0126 15 μM, Jak3 inhibitor 1 μM
Protocol: All antibodies were purchased from BD Pharmingen. The stained cells were applied to the flow cytometer (FACSCalibur; Becton Dickinson), and 20,000 events were analyzed. Results of the cell staining are presented as histograms with cell number on the vertical axis and relative fluorescence on the logarithmic horizontal axis. […] Inhibitors of: […] Marzec et al., 2007, Oncogene 26: 813-821; Marzec et al., 2007, Oncogene 26: 5606-5614; Marzec et al., 2008, Cancer Res 68: 1083-1091). A mixture of four STAT3 or STAT5b specific siRNA or non-targeting siRNA (all purchased from Dharmacon) was introduced into cells at 100 nM by lipofection with the hew generation Lipofectamine (DMRIE-C; Invitrogen). The procedure was repeated after 24 hours and the cells were cultured for an additional 24 hours. The cells were harvested at one time point 48 hours after first transfection. Extend of the protein knock-down was examined by Flow Cytometry and RT-PCR.

[2] = test system: CD274 mRNA; assay: RT-PCR for CD274 mRNA in ALK+ TCL cells; format: cell-based, human; conditions: SUDHL-1 cells; rapamycin 300 nM, wortmannin 20 nM, U0126 15 μM, Jak3 inhibitor 1 μM
Protocol: Total RNA was isolated using RNeasy Mini kit (Qiagen), treated with DNase I (Invitrogen), and reverse-transcribed by using Thermoscript RT-PCR system (Invitrogen) with random hexamers as cDNA synthesis primers. The following primer pairs were used for the cDNA amplification: β-actin, 5'[…] ID NO: 1) and 5'[…] ID NO: 2); CD274, 5'[…] ID NO: 3) and 5'[…] ID NO: 4). PCR was performed by using Platium […] polymerase (Invitrogen) for 21 cycles comprised of the denaturation step for 20 seconds at 94° C., annealing for 30 seconds at 58° C. and elongation for 30 seconds at 72° C. The PCR products were visualized by ethium bromide staining in 1.5% agarose gel. […] Inhibitors of: […] Marzec et al., 2007, Oncogene 26: 813-821; Marzec et al., 2007, Oncogene 26: 5606-5614; Marzec et al., 2008, Cancer Res 68: 1083-1091). A mixture of four STAT3 or STAT5b specific siRNA or non-targeting siRNA (all purchased from Dharmacon) was introduced into cells at 100 nM by lipofection with the hew generation Lipofectamine (DMRIE-C; Invitrogen). The procedure was repeated after 24 hours and the cells were cultured for an additional 24 hours. The cells were harvested at one time point 48 hours after first transfection. Extend of the protein knock-down was examined by Flow Cytometry and RT-PCR.

With `N#CC(=C(/N)Sc1ccccc1N)/C(C#N)=C(\N)Sc1ccccc1N` [U0126] the “CD274 expression on the protein level (flow cytometry)” value [1] was “no detectable impact” and the “CD274 expression on the mRNA level (RT-PCR)” value [2] was “no detectable impact”.
